Results published in patent US12048691B2 (SPERO THERAPEUTICS, INC., priority 2020, dated 2024).
Values after ≈ are worked out from the molar mass of the structure shown. Like-named read-outs stand apart in the source and are kept apart here.

How the values were obtained:
Format in all cases: cell-based
[1] = system: Enterobacterales overproducing AmpC; assay: Broth microdilution susceptibility of isolates overexpressing AmpC
Procedure: (§1) Frozen-form broth microdilution panels were manufactured by JMI Laboratories and contained cation-adjusted Mueller-Hinton broth. Quality assurance was performed by sterility checks, colony counts, and testing CLSI recommended quality control reference strains.

[2] = system: P. aeruginosa isolates that overproduced AmpC; assay: as above; details: P. aeruginosa (32)
Procedure: as §1

E. coli [3] = assay: Susceptibility of E. coli from urinary tract infections, 18 EU countries 2020 (STEWARD)
Procedure: The study assessed the prevalence of resistance and evaluated the activity of oral tebipenem (TBP) and comparators against EC from urinary tract infections.
Results were interpreted using EUCAST criteria. […] ESBL phenotypes were determined by CLSI criteria and sequenced to identify CTX-M-15 genotype and clonal complex ST131.

E. coli [4] = assay: Broth microdilution MIC against characterized subsets of UTI E. coli (2018-2020)
From the text: Isolates were collected from medical centers in all 9 US Census Regions and tested by broth microdilution. MIC interpretation was based on CLSI. Isolates that met MIC criteria were subjected to genome sequencing, followed by screening of extended-spectrum b-lactamase (ESBL) genes and epidemiology typing (MLST).

E. coli [5] = assay: Broth microdilution against US UTI pathogens 2019-2020; details: E. coli (2,339)
Procedure: (§2) This study assessed the in vitro activity of tebipenem and comparator agents against Enterobacterales (ENT) responsible for UTIs in the US during 2019-2020. A total of 3,576 ENT recovered from urine samples during the 2019-2020 STEWARD Surveillance Program were included in the study. Isolates were collected from medical centers in all 9 US Census Regions and were centrally tested for susceptibility by reference broth microdilution method. MIC interpretation was performed based on CLSI criteria.

Enterobacterales (ENT) = assay: as above; details: All (3,567)
Procedure: as §2

K. pneumoniae = assay: as above; details: K. pneumoniae (511)
Procedure: as §2

P. mirabilis = assay: as above; details: P. mirabilis (235); for % susceptible; CLSI: cefuroxime: oral breakpoint
Procedure: as §2

[6] = Enterobacterales (36), read-out: MIC50
[7] = Enterobacterales (36), read-out: MIC90
[8] = Escherichia coli, CTX-M a, read-out: MIC50
[9] = Escherichia coli, CTX-M a, read-out: MIC90
[10] = Escherichia coli, ESBL (360), read-out: MIC50
[11] = Escherichia coli, ESBL (360), read-out: MIC90
[12] = Escherichia coli, Non-ESBL (2035), read-out: MIC50
[13] = Escherichia coli, Non-ESBL (2035), read-out: MIC90

Piperacillin-tazobactam
CLSI %1 ([1]; Enterobacterales (36)): 19.4% | CLSI % R ([1]; Enterobacterales (36)): 33.3% | CLSI % S ([1]; Enterobacterales (36)): 47.2% | MIC50 ([1]; Enterobacterales (36)): 32 μ/ml | MIC90 ([1]; Enterobacterales (36)): >128 μ/ml | CLSI %1 [2]: 40.6% | CLSI % R [2]: 53.1% | CLSI % S [2]: 6.2% | MIC50 [2]: 128 μ/ml | MIC90 [2]: >128 μ/ml

CC1(C)S[C@@H]2[C@H](/N=C/N3CCCCCC3)C(=O)N2[C@H]1C(=O)O [mecillinam]
MIC90 (E. coli [3]; Escherichia coli, all E. coli (764) from UTIs): > 8 µg/mL | Susceptibility rate (E. coli [3]; all E. coli, EUCAST criteria): 88.0%

amoxicillin-clavulanate (2:1) [A/C]
% susceptible by CLSI M100 criteria (E. coli [4]; CTX-M a): 57.6% | MIC50 (E. coli [4]; CTX-M a): 8 µg/mL | MIC90 (E. coli [4]; CTX-M a): 16 µg/mL | % susceptible by CLSI M100 criteria (E. coli [4]; ESBL (360)): 47.2% | MIC50 (E. coli [4]; ESBL (360)): 16 µg/mL | MIC90 (E. coli [4]; ESBL (360)): 32 µg/mL | % susceptible by CLSI M100 criteria (E. coli [4]; Non-ESBL (2035)): 86.6% | MIC50 (E. coli [4]; Non-ESBL (2035)): 4 µg/mL | MIC90 (E. coli [4]; Non-ESBL (2035)): 16 µg/mL | MIC50 (E. coli [5]): 4000 µg/mL | MIC90 (E. coli [5]): 16000 µg/mL | % susceptible; CLSI (E. coli [5]; cefuroxime: oral breakpoint): (80.8) % | MIC50 (Enterobacterales (ENT)): 4000 µg/mL | MIC90 (Enterobacterales (ENT)): 32000 µg/mL | % susceptible; CLSI (Enterobacterales (ENT); cefuroxime: oral breakpoint): (76.1) % | MIC50 (K. pneumoniae): 2000 µg/mL | MIC90 (K. pneumoniae): 16000 µg/mL | % susceptible; CLSI (K. pneumoniae; cefuroxime: oral breakpoint): (86.7) % | MIC50 (P. mirabilis): 1/1 mg/mL | MIC90 (P. mirabilis): 1/1 mg/mL | % susceptible; CLSI (P. mirabilis): (96.6) % | % susceptible; CLSI (P. mirabilis; listed as amoxicillin/clavulanate): 96.6% | CLSI %1 ([1]; Enterobacterales (36)): 11.1% | CLSI % R ([1]; Enterobacterales (36)): 86.1% | CLSI % S ([1]; Enterobacterales (36)): 2.8% | MIC50 ([1]; Enterobacterales (36)): >32 μ/ml | MIC90 ([1]; Enterobacterales (36)): >32 μ/ml

C[C@H]1[C@H](NC(=O)/C(=N\OC(C)(C)C(=O)O)c2csc(N)n2)C(=O)N1S(=O)(=O)O [Aztreonam]
CLSI %1 ([1]; Enterobacterales (36)): 14.3% | CLSI % R ([1]; Enterobacterales (36)): 54.3% | CLSI % S ([1]; Enterobacterales (36)): 31.4% | MIC50 [1, 6]: > 16 µg/mL | MIC90 [1, 7]: > 16 µg/mL | CLSI %1 [2]: 31.2% | CLSI % R [2]: 50.0% | CLSI % S [2]: 18.8%

CN(C)[C@@H]1C(O)=C(C(N)=O)C(=O)[C@@]2(O)C(O)=C3C(=O)c4c(O)cccc4[C@@](C)(O)[C@H]3C[C@@H]12 [Tetracycline]
CLSI %1 ([1]; Enterobacterales (36)): 5.6% | CLSI % R ([1]; Enterobacterales (36)): 44.4% | CLSI % S ([1]; Enterobacterales (36)): 50.0% | MIC50 [1, 6]: 4 µg/mL (≈ 9 µM) | MIC90 [1, 7]: > 16 µg/mL

Cc1nnc(SCC2=C(C(=O)O)N3C(=O)[C@@H](NC(=O)Cn4cnnn4)[C@H]3SC2)s1 [CFZ, cefazolin]
% susceptible by CLSI M100 criteria (E. coli [4]; CTX-M a): 0.0% | % susceptible by CLSI M100 criteria (E. coli [4]; ESBL (360)): 0.6% | MIC50 (E. coli [4]; [8]): > 32 µg/mL | MIC90 (E. coli [4]; [9]): > 32 µg/mL | MIC50 (E. coli [4]; [10]): > 32 µg/mL | MIC90 (E. coli [4]; [11]): > 32 µg/mL | MIC50 (E. coli [4]; [12]): 2 µg/mL (≈ 4.4 µM) | MIC90 (E. coli [4]; [13]): 8 µg/mL (≈ 17.6 µM) | % susceptible by CLSI M100 criteria (E. coli [4]; Non-ESBL (2035)): 96.4%

CO/N=C(\C(=O)N[C@@H]1C(=O)N2C(C(=O)[O-])=C(C[N+]3(C)CCCC3)CS[C@H]12)c1csc(N)n1 [Cefepime]
MIC50 [1]: 0.5 µg/mL (≈ 1.04 µM) | MIC90 [1]: 128 µg/mL (≈ 266 µM) | CLSI %1 [2]: 40.6% | CLSI % R [2]: 12.5% | CLSI % S [2]: 46.9%

CO/N=C(\C(=O)N[C@@H]1C(=O)N2C(C(=O)O)=C(CSc3nc(=O)c(=O)[nH]n3C)CS[C@H]12)c1csc(N)n1 [Ceftriaxone, ceftriaxone]
% susceptible by CLSI M100 criteria (E. coli [4]; CMYb (33)): 0.0% | % susceptible by CLSI M100 criteria (E. coli [4]; CTX-M a): 0.0% | % susceptible by CLSI M100 criteria (E. coli [4]; DHA(7)): 28.6% | % susceptible by CLSI M100 criteria (E. coli [4]; ESBL (360)): 6.4% | MIC50 (E. coli [4]; [8]): > 8 µg/mL | MIC90 (E. coli [4]; [9]): > 8 µg/mL | MIC50 (E. coli [4]; Escherichia coli, DHA(7), read-out: MIC50): 2 µg/mL (≈ 3.61 µM) | MIC50 (E. coli [4]; [10]): > 8 µg/mL | MIC90 (E. coli [4]; [11]): > 8 µg/mL | MIC50 (E. coli [4]; [12]): ≤ 0.06 µg/mL | MIC90 (E. coli [4]; [13]): 0.12 µg/mL (≈ 0.216 µM) | % susceptible by CLSI M100 criteria (E. coli [4]; Non-ESBL (2035)): 100% | % susceptible by CLSI M100 criteria (E. coli [4]; Non-ST131 (203)): 37.9% | % susceptible by CLSI M100 criteria (E. coli [4]; ST131 (222)): 20.3% | MIC50 [1]: > 8 µg/mL | MIC90 [1]: > 8 µg/mL | CLSI %1 ([1]; Enterobacterales (36)): 13.9% | CLSI % R ([1]; Enterobacterales (36)): 63.9% | CLSI % S ([1]; Enterobacterales (36)): 22.2%
